From paper PMC2688476, “Low affinity glucocorticoid binding site ligands as potential anti-fibrogenics” (Comparative Hepatology, 2009)
Structures can show the parent of a compound that is named as a salt. Where two headings read alike, the source gives them in different places.

Assays:
[1] = target: low affinity glucocorticoid binding site (LAGS) in rat liver microsomes (Rattus norvegicus, UniProt P70580); assay: Competition with radiolabelled dexamethasone for specific binding to rat liver microsomes (LAGS activity); conditions: for IC50: vs radiolabelled dexamethasone
Protocol: A small volume of each incubation was removed to determine the total ligand concentration ([L0]) prior to removal of free unbound ligand by dextran/charcoal adsorption. […] Free ligand concentration at equilibrium was calculated by subtracting specifically bound ligand at equilibrium from the total ligand concentration (i.e. [L0] - [LRe]) and assumes receptor-ligand stoichiometry of 1:1.
In brief, rats were anaesthetized with pentobarbital and a 16G cannula inserted into the hepatic portal vein and secured. […] The liver was then excised and chopped roughly with ice-cooled TS buffer (10 mM Tris/HCl pH 7.4 containing 250 mM sucrose) and disrupted using a Potter-Elvehjem homogenisor. The resultant homogenate was then centrifuged at 12,000 g for 20 minutes at 4°C and the supernatant retained and centrifuged at 100,000 g for 60 minutes at 4°C. The resultant "microsomal" pellet was re-suspended in fresh TS buffer and re-centrifuged at 100,000 g to obtain a washed microsomal pellet. […] After overnight incubation on ice, free ligand was removed by charcoal dextran adsorption and bound radioligand determined in supernatants by liquid scintillation, essentially as previously described.

[2] = tested on: human HSCs; assay: Human HSC trans-differentiation/proliferation (confluence, α-sma); assay type: cell-based; conditions: confluence at day 12
Protocol: (§1) Figure 5 Screening for inhibitors of trans-differentiation in rat and human HSCs – Part 1. Rat HSCs were isolated and cultured for 2 days (T0) whereupon cells were treated with the indicated compound as outlined in methods section. After 9 days, cells were analyzed by Western blotting for α-smooth muscle actin (α-sma). Each lane contains 10 μg total protein/lane, results typical of at least 3 separate experiments (a). Human HSCs were treated with the indicated compound and confluence determined in randomly selected fields. Data are the mean and standard deviation confluence at day 12 of 3 separate treatment dishes from the same donor, typical of at least 3 separate donors (b).
Figure 6 Screening for inhibitors of trans-differentiation in rat and human HSCs – Part 2. Photomicrographs of human HSCs at day 12 of culture with the indicated treatment (a); levels of expression of α-smooth muscle actin (α-sma) (b) and levels of expression of fibrogenic marker mRNA transcripts in human HSCs after treatment selected compounds for 19 days. Data are the mean and standard deviation relative transcript level from 3 separate treatments on cells from the same donor, typical of at least 3 separate donors (c).
(§2) HSCs were isolated from rats (250–300 g body weight, Harlan, UK) by sequential pronase/collagenase perfusion of the liver followed by density gradient centrifugation and elutriation as previously outlined. Human HSCs were isolated by an essentially similar procedure using discarded tissue from patients undergoing a hepatectomy with patient consent and ethical approval by the Grampian Regional Ethical Committee. HSCs were seeded onto plastic culture dishes and cultured in Dulbecco's modified Eagle Medium (DMEM) containing 4.5 g/l of glucose and supplemented with 5% or 16% (v/v) fetal calf serum (for rat or human respectively), […] penicillin, 80 μg/ml streptomycin and 32 μg/ml gentamycin. Additional treatments were made by addition of compounds in an ethanol vehicle (stock solutions at 1000× final concentration). Ethanol at 0.1% (v/v) acted as control. Frequency of treatment (3 treatments per week/2 medium changes per week), as previously described.

[3] = tested on: CYP3A1/3A23; assay: Screening for PXR activators in rat hepatocytes via CYP3A induction (Western blot); assay type: cell-based; conditions: 10 μM for 24 hours (PCN 20 μM), Western blot
[4] = tested on: rat HSCs; assay: Rat HSC-to-myofibroblast trans-differentiation (α-smooth muscle actin Western blot); assay type: cell-based; conditions: α-sma Western blot after 9 days of treatment
Protocol: as §1, §2

[5] = target: T1, rPGRMC1 (Rattus norvegicus, UniProt P70580); assay: Dexamethasone binding competition in COS-7 cells transfected with pSG5-rPGRMC1; conditions: unlabelled competitor, Fig. 2e
T1 construct: the full length cDNA for rPGRMC1 was cloned from rat myofibroblasts and expressed in COS-7 cells; expressed in transfected cells; host or cells: COS-7 cells transfected with pSG5-rPGRMC1
Protocol: Western blot for rPGRMC1 in various cell fractions using the anti-IZ Ab in COS-7 cells transfected with the indicated construct. All lanes were loaded with 10 μg protein/lane. Note, HC5 is a truncated form of rPGRMC1 cloned from rat kidney (a). Western blot for rPGRMC1 using the anti-IZ Ab and CYP2E1 (lower blot). Rat hepatocytes were cultured for 24 hours to allow attachment (T0) and then treated for 24 hours with the indicated ligand or ethanol vehicle prior to analysis. Each lane contains 10 μg total protein/well, typical of 3 separate experiments (b). […] The percentage of cells that stained positive for beta galactosidase activity (grey bars) was determined in situ in separate wells by examining at least 5 randomly selected low power fields. […] The percent of binding in the presence of unlabelled competitors was determined after subtraction of non-specific binding. […]
COS-7 cells were transfected at 30–50% confluency using Effectene transfection reagent (Qiagen, Southampton, UK) essentially according to the manufacturer's instructions with either pSG5 empty vector, pSG5-rPGRMC1 or the β-galactosidase-encoding pcDNA3.1e/lacZ vector (Invitrogen, Paisley, UK). Thirty hours after transfection, β-galactosidase activity was determined in fixed cells,in situ. […]

[6] = target: progesterone binding protein in pig liver microsomes; conditions: read-out: IC50% for competition for progesterone binding protein; cited from earlier work
[7] = tested on: CYP3A4; assay: Screening for PXR activators in human hepatocytes via CYP3A induction (Western blot); assay type: cell-based; conditions: 24 hours treatment, Western blot
[8] = tested on: human myofibroblasts; assay: Fibrogenic marker mRNA transcripts (TGFβ, TIMP1, collagen 1A1) in human myofibroblasts, qRT-PCR; assay type: cell-based; conditions: treatment for 19 days
From the text: Quantitative transcript expression was examined after reverse transcription (using a Taqman reverse transcription kit (Applied Biosystems)) using a PE Applied Biosystems ABI7700 and PE Applied Biosystems Gene Expression Assay™, incorporating sequence-specific forward, reverse and fluorescently labelled probes (see Table 2).

[9] = read-out: IC50% (competition of substituted progestins for binding to rat liver microsomes), Additional file 1
[10] = read-out: IC50% (competition of dexamethasone derivatives for binding to rat liver microsomes), Additional file 2

low affinity glucocorticoid binding site (LAGS) in rat liver microsomes, sequence (P70580 2-195): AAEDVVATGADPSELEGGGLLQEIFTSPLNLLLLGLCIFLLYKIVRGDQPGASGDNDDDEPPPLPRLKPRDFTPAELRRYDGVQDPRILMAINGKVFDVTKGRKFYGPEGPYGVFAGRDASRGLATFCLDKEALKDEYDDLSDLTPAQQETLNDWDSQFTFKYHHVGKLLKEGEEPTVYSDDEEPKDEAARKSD
T1 sequence (P70580 whole entry): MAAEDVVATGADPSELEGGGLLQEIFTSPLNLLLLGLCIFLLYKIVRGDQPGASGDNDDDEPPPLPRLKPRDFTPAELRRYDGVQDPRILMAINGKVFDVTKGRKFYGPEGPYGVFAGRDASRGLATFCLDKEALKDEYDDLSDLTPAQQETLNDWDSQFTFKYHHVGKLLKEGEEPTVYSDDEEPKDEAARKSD

CCOC(=O)[C@H]1CC[C@H]2[C@@H]3CCC4=CC(=O)CC[C@]4(C)[C@H]3CC[C@]12C [4 androstene-3-one 17β-carboxylic acid ethyl ester]
IC50 [1, 9]: 0.1 µM

CC(=O)O[C@@H]1C=C2CC[C@H]3[C@@H]4CC[C@H](C(C)=O)[C@@]4(C)CC[C@@H]3[C@@]2(C)CC1 [4 pregnene-3β-ol-20-one acetate]
IC50 [1, 9]: 0.5 µM

CC(=NOCC(=O)O)[C@H]1CC[C@H]2[C@@H]3CCC4=C[C@@H](O)CC[C@]4(C)[C@H]3CC[C@]12C [4 pregnene-3β-ol-20-one carboxymethyloxime]
IC50 [1, 9]: > 100 µM

CC(=O)[C@H]1CC[C@H]2[C@@H]3CCC4=C[C@@H](O)CC[C@]4(C)[C@H]3CC[C@]12C [4 pregnene-3β-ol-20-one]
IC50 [1, 9]: 0.5 µM

CC(=O)[C@H]1CC[C@H]2[C@@H]3C[C@@H](O)C4=CC(=O)CC[C@]4(C)[C@H]3CC[C@]12C [6α-hydroxyprogesterone]
IC50 [1, 9]: 5 µM

CC(=O)[C@H]1CC[C@H]2[C@@H]3C[C@@H](O)C4=CC(=O)CC[C@]4(C)[C@H]3CC[C@]12C [6β-hydroxyprogesterone]
IC50 [1, 9]: 10 µM

CC(=O)O[C@@H]1C[C@H]2[C@@H]3CC[C@H](C(C)=O)[C@@]3(C)CC[C@@H]2[C@@]2(C)CCC(=O)C=C12 [6β-progesterone acetate]
IC50 [1, 9]: 0.5 µM

CC(=O)[C@H]1CC[C@H]2[C@@H]3CCC4=CC(=O)CC[C@]4(C)[C@H]3[C@H](O)C[C@]12C [11α-hydroxyprogesterone]
IC50 [1, 9]: 0.1 µM

CC(=O)O[C@@H]1C[C@]2(C)[C@@H](C(C)=O)CC[C@H]2[C@@H]2CCC3=CC(=O)CC[C@]3(C)[C@H]21 [11α-progesterone acetate]
IC50 [1, 9]: 0.1 µM

CC(=O)[C@H]1CC[C@H]2[C@@H]3CCC4=CC(=O)CC[C@]4(C)[C@H]3[C@H](OS(=O)(=O)c3ccc(C)cc3)C[C@]12C [11α-progesterone tosylate]
IC50 [1, 9]: 10 µM

CC(=O)[C@H]1CC[C@H]2[C@@H]3CCC4=CC(=O)CC[C@]4(C)[C@H]3[C@@H](O)C[C@]12C [11β-hydroxyprogesterone]
inhibitory activity on human HSC trans-differentiation [2]: significant inhibitory activity

CC1CC2C3CCC4=CC(=O)C=CC4(C)C3(F)C(O)CC2(C)C1(O)C(=O)O (stereo not drawn) [17β-carboxylic acid derivative, 9α-fluoro 16α-methyl-11β,17α-dihydroxy-1,4-pregn-3-one 17-carboxylic acid]
IC50 [1, 10]: 100 µM

CC(=O)[C@H]1[C@H](C#N)C[C@H]2[C@@H]3CC=C4C[C@@H](O)CC[C@]4(C)[C@H]3CC[C@@]21C [PCN, pregnenolone 16α carbonitrile]
CYP2E expression in rat hepatocytes [3]: no affect
CYP3A1/3A23 expression (induction) in rat hepatocytes [3]: induced
inhibition of rat HSC trans-differentiation [4]: inhibited
competition with dexamethasone for binding to COS-7 cell extracts over-expressing rPGRMC1 [5]: significant competition

C[C@]12CCC(=O)C=C1CC[C@@H]1[C@@H]2CC[C@]2(C)C(=O)CC[C@@H]12 [androstenedione, reference compound]
IC50 [1, 9]: 5 µM

C[C@@H]1C[C@H]2[C@@H]3CCC4=CC(=O)C=C[C@]4(C)[C@@]3(F)[C@@H](O)C[C@]2(C)[C@@]1(O)C(=O)COS(C)(=O)=O [dexamethasone mesylate]
IC50 [1, 10]: 10 µM

C[C@@H]1C[C@H]2[C@@H]3CCC4=CC(=O)C=C[C@]4(C)[C@@]3(F)[C@@H](O)C[C@]2(C)[C@@]1(O)C(=O)CO [dexamethasone, reference compound]
maximal binding site concentration ([1]; radiolabelled dexamethasone, rat liver microsomes): 8.3 pmoles/mg of microsomal protein
IC50 [6]: > 100 µM

C[C@H]1C[C@@H]2[C@H]([C@@H](O)C[C@@]3(C)[C@H]2CC[C@]3(O)C(=O)CO)[C@@]2(C)C=CC(=O)C=C12 [methylprednisolone, reference compound]
CYP3A4 expression (induction) in human hepatocytes [7]: evidence of induction

CC(=O)[C@H]1CC[C@H]2[C@@H]3CCC4=CC(=O)CC[C@]4(C)[C@H]3CC[C@]12C [progesterone, reference compound]
competition for dexamethasone binding to rat liver microsomes (in words) ([1]; rat liver microsomes): competed
inhibition of rat HSC trans-differentiation [4]: markedly inhibited
inhibitory activity on human HSC trans-differentiation [2]: significant inhibitory activity

CO[C@H]1/C=C/O[C@@]2(C)Oc3c(C)c(O)c4c(O)c(c(/C=N/N5CCN(C)CC5)c(O)c4c3C2=O)NC(=O)/C(C)=C\C=C\[C@H](C)[C@H](O)[C@@H](C)[C@@H](O)[C@@H](C)[C@H](OC(C)=O)[C@@H]1C [rifampicin, reference compound]
expression of TGFβ, TIMP1 and collagen 1A1 mRNAs in human myofibroblasts [8]: inhibited the expression of all mRNAs
inhibitory activity on human HSC trans-differentiation [2]: significant inhibitory activity

CCC(=O)O[C@H]1CC[C@H]2[C@@H]3CCC4=CC(=O)CC[C@]4(C)[C@H]3CC[C@]12C [testosterone proprionate, reference compound]
IC50 [1, 9]: 10 µM

biotinylated dexamethasone
IC50 [1, 10]: > 100 µM
